{
  "source": "ChEMBL document CHEMBL1201862",
  "about": "“PubChem BioAssay data set” (2004)",
  "assay_in_all_cases": "NCI anticancer screen, dose series, 48 h",
  "key": {"SK-OV-3": {"tested_on": "SK-OV-3"}, "BT-549": {"tested_on": "BT-549"}, "TK-10": {"tested_on": "TK-10"}, "HOP-92": {"tested_on": "HOP-92"}, "IGROV-1": {"tested_on": "IGROV-1"}, "T47D": {"tested_on": "T47D"}, "MDA-N": {"tested_on": "MDA-N"}, "MDA-MB-231": {"tested_on": "MDA-MB-231"}, "HCC 2998": {"tested_on": "HCC 2998"}, "SK-MEL-2": {"tested_on": "SK-MEL-2"}, "HT-29": {"tested_on": "HT-29"}, "CCRF-CEM": {"tested_on": "CCRF-CEM"}, "A498": {"tested_on": "A498"}, "HOP-62": {"tested_on": "HOP-62"}, "A549": {"tested_on": "A549"}, "SNB-19": {"tested_on": "SNB-19"}, "SK-MEL-5": {"tested_on": "SK-MEL-5"}, "NCI-H522": {"tested_on": "NCI-H522"}},
  "note": "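Tested at 5 concentrations; 48 h exposure; 96-well plates; endpoints linearly interpolated, else capped at highest concentration. At the GI50, growth is halved.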 The source made the active and inactive calls. Rule as the data show it: active = GI50 up to about 1.1 µM and inactive = higher.",
  "data": [
    {"compound": "Cc1ccc(C(=O)N/N=C(\\N=N\\c2ccc([N+](=O)[O-])cc2)c2ccc(N(CCC#N)CCC#N)cc2C)cc1", "values": [
      {"measurement": "GI50", "setting": "SK-OV-3", "result": "> 100 µM (inactive)"},
      {"measurement": "GI50", "setting": "BT-549", "result": "47.1 µM (inactive)"},
      {"measurement": "GI50", "setting": "TK-10", "result": "> 100 µM (inactive)"},
      {"measurement": "GI50", "setting": "HOP-92", "result": "> 100 µM (inactive)"},
      {"measurement": "GI50", "setting": "IGROV-1", "result": "66.8 µM (inactive)"},
      {"measurement": "GI50", "setting": "T47D", "result": "26.6 µM (inactive)"},
      {"measurement": "GI50", "setting": "MDA-N", "result": "78.9 µM (inactive)"},
      {"measurement": "GI50", "setting": "MDA-MB-231", "result": "> 100 µM (inactive)"},
      {"measurement": "GI50", "setting": "HCC 2998", "result": "54.1 µM (inactive)"},
      {"measurement": "GI50", "setting": "SK-MEL-2", "result": "49.5 µM (inactive)"},
      {"measurement": "GI50", "setting": "HT-29", "result": "34.3 µM (inactive)"},
      {"measurement": "GI50", "setting": "CCRF-CEM", "result": "39.8 µM (inactive)"},
      {"measurement": "GI50", "setting": "A498", "result": "64.9 µM (inactive)"},
      {"measurement": "GI50", "setting": "HOP-62", "result": "71.4 µM (inactive)"},
      {"measurement": "GI50", "setting": "A549", "result": "70.1 µM (inactive)"},
      {"measurement": "GI50", "setting": "SNB-19", "result": "> 100 µM (inactive)"},
      {"measurement": "GI50", "setting": "SK-MEL-5", "result": "75.3 µM (inactive)"}
    ]},
    {"compound": "Cc1ccc(S(=O)(=O)NC(=O)NC2=NC(C)(C)N(c3ccc(Cl)c(Cl)c3)C(N)=N2)cc1", "values": [
      {"measurement": "GI50", "setting": "SK-OV-3", "result": "> 100 µM (inactive)"},
      {"measurement": "GI50", "setting": "BT-549", "result": "> 100 µM (inactive)"},
      {"measurement": "GI50", "setting": "TK-10", "result": "84.7 µM (inactive)"},
      {"measurement": "GI50", "setting": "IGROV-1", "result": "19 µM (inactive)"},
      {"measurement": "GI50", "setting": "NCI-H522", "result": "> 100 µM (inactive)"},
      {"measurement": "GI50", "setting": "T47D", "result": "10.4 µM (inactive)"},
      {"measurement": "GI50", "setting": "MDA-N", "result": "5.04 µM (inactive)"},
      {"measurement": "GI50", "setting": "MDA-MB-231", "result": "7.98 µM (inactive)"},
      {"measurement": "GI50", "setting": "HCC 2998", "result": "15.9 µM (inactive)"},
      {"measurement": "GI50", "setting": "SK-MEL-2", "result": "> 100 µM (inactive)"},
      {"measurement": "GI50", "setting": "HT-29", "result": "28.7 µM (inactive)"},
      {"measurement": "GI50", "setting": "CCRF-CEM", "result": "4.74 µM (inactive)"},
      {"measurement": "GI50", "setting": "A498", "result": "> 100 µM (inactive)"},
      {"measurement": "GI50", "setting": "HOP-62", "result": "7.59 µM (inactive)"},
      {"measurement": "GI50", "setting": "A549", "result": "2.92 µM (inactive)"},
      {"measurement": "GI50", "setting": "SNB-19", "result": "97.9 µM (inactive)"},
      {"measurement": "GI50", "setting": "SK-MEL-5", "result": "18.3 µM (inactive)"}
    ]},
    {"compound": "Cc1c(CCCl)c(N=[N+]=[N-])n2c(nc3ccccc32)c1C#N", "values": [
      {"measurement": "GI50", "setting": "SK-OV-3", "result": "2.11 µM (inactive)"},
      {"measurement": "GI50", "setting": "BT-549", "result": "0.867 µM (active)"},
      {"measurement": "GI50", "setting": "TK-10", "result": "1.52 µM (inactive)"},
      {"measurement": "GI50", "setting": "HOP-92", "result": "1.25 µM (inactive)"},
      {"measurement": "GI50", "setting": "IGROV-1", "result": "1.01 µM (active)"},
      {"measurement": "GI50", "setting": "NCI-H522", "result": "0.163 µM (active)"},
      {"measurement": "GI50", "setting": "T47D", "result": "0.839 µM (active)"},
      {"measurement": "GI50", "setting": "MDA-N", "result": "1.56 µM (inactive)"},
      {"measurement": "GI50", "setting": "MDA-MB-231", "result": "1.42 µM (inactive)"},
      {"measurement": "GI50", "setting": "SK-MEL-2", "result": "1.48 µM (inactive)"},
      {"measurement": "GI50", "setting": "HT-29", "result": "1.58 µM (inactive)"},
      {"measurement": "GI50", "setting": "CCRF-CEM", "result": "0.236 µM (active)"},
      {"measurement": "GI50", "setting": "A498", "result": "1.64 µM (inactive)"},
      {"measurement": "GI50", "setting": "HOP-62", "result": "2.13 µM (inactive)"},
      {"measurement": "GI50", "setting": "A549", "result": "2.12 µM (inactive)"},
      {"measurement": "GI50", "setting": "SNB-19", "result": "2.77 µM (inactive)"},
      {"measurement": "GI50", "setting": "SK-MEL-5", "result": "0.491 µM (active)"}
    ]},
    {"compound": "N#Cc1ccc(/C=[N+](/C=c2ccc(=C=[N-])cc2)N(CCO)C2=NCCN2)cc1", "values": [
      {"measurement": "GI50", "setting": "SK-OV-3", "result": "> 100 µM (inactive)"},
      {"measurement": "GI50", "setting": "BT-549", "result": "> 100 µM (inactive)"},
      {"measurement": "GI50", "setting": "TK-10", "result": "> 100 µM (inactive)"},
      {"measurement": "GI50", "setting": "IGROV-1", "result": "> 100 µM (inactive)"},
      {"measurement": "GI50", "setting": "NCI-H522", "result": "71 µM (inactive)"},
      {"measurement": "GI50", "setting": "T47D", "result": "> 100 µM (inactive)"},
      {"measurement": "GI50", "setting": "MDA-N", "result": "> 100 µM (inactive)"},
      {"measurement": "GI50", "setting": "MDA-MB-231", "result": "> 100 µM (inactive)"},
      {"measurement": "GI50", "setting": "HCC 2998", "result": "> 100 µM (inactive)"},
      {"measurement": "GI50", "setting": "SK-MEL-2", "result": "> 100 µM (inactive)"},
      {"measurement": "GI50", "setting": "HT-29", "result": "> 100 µM (inactive)"},
      {"measurement": "GI50", "setting": "CCRF-CEM", "result": "> 100 µM (inactive)"},
      {"measurement": "GI50", "setting": "A498", "result": "> 100 µM (inactive)"},
      {"measurement": "GI50", "setting": "HOP-62", "result": "> 100 µM (inactive)"},
      {"measurement": "GI50", "setting": "A549", "result": "> 100 µM (inactive)"},
      {"measurement": "GI50", "setting": "SNB-19", "result": "> 100 µM (inactive)"},
      {"measurement": "GI50", "setting": "SK-MEL-5", "result": "> 100 µM (inactive)"}
    ]},
    {"compound": "CC(=O)O[C@H]1C(=O)[C@@]2(C)C(C(OC(=O)c3ccccc3)[C@]3(O)CC(OC(=O)C(O)C(NC(=O)c4ccccc4)c4cccc(Cl)c4)C(C)=C1C3(C)C)[C@]1(OC(C)=O)CO[C@@H]1C[C@@H]2O", "note": "(stereo partly drawn)", "values": [
      {"measurement": "GI50", "setting": "SK-OV-3", "result": "> 10 µM (inactive)"},
      {"measurement": "GI50", "setting": "BT-549", "result": "> 10 µM (inactive)"},
      {"measurement": "GI50", "setting": "TK-10", "result": "> 10 µM (inactive)"},
      {"measurement": "GI50", "setting": "IGROV-1", "result": "3.88 µM (inactive)"},
      {"measurement": "GI50", "setting": "NCI-H522", "result": "3.18 µM (inactive)"},
      {"measurement": "GI50", "setting": "T47D", "result": "8.15 µM (inactive)"},
      {"measurement": "GI50", "setting": "MDA-N", "result": "0.984 µM (active)"},
      {"measurement": "GI50", "setting": "MDA-MB-231", "result": "> 10 µM (inactive)"},
      {"measurement": "GI50", "setting": "HCC 2998", "result": "4.67 µM (inactive)"},
      {"measurement": "GI50", "setting": "SK-MEL-2", "result": "3.39 µM (inactive)"},
      {"measurement": "GI50", "setting": "HT-29", "result": "2.46 µM (inactive)"},
      {"measurement": "GI50", "setting": "CCRF-CEM", "result": "2.62 µM (inactive)"},
      {"measurement": "GI50", "setting": "HOP-62", "result": "7.01 µM (inactive)"},
      {"measurement": "GI50", "setting": "A549", "result": "7.64 µM (inactive)"},
      {"measurement": "GI50", "setting": "SNB-19", "result": "> 10 µM (inactive)"},
      {"measurement": "GI50", "setting": "SK-MEL-5", "result": "5.94 µM (inactive)"}
    ]},
    {"compound": "OCC1OC(c2n[nH]c3c(O)ncnc23)C(O)C1O", "note": "(stereo not drawn)", "values": [
      {"measurement": "GI50", "setting": "SK-OV-3", "result": "2.89 µM (inactive)"},
      {"measurement": "GI50", "setting": "BT-549", "result": "56.8 µM (inactive)"},
      {"measurement": "GI50", "setting": "IGROV-1", "result": "18.4 µM (inactive)"},
      {"measurement": "GI50", "setting": "NCI-H522", "result": "10.2 µM (inactive)"},
      {"measurement": "GI50", "setting": "T47D", "result": "4.72 µM (inactive)"},
      {"measurement": "GI50", "setting": "MDA-N", "result": "31.7 µM (inactive)"},
      {"measurement": "GI50", "setting": "MDA-MB-231", "result": "3.66 µM (inactive)"},
      {"measurement": "GI50", "setting": "HCC 2998", "result": "18.7 µM (inactive)"},
      {"measurement": "GI50", "setting": "HT-29", "result": "11.9 µM (inactive)"},
      {"measurement": "GI50", "setting": "CCRF-CEM", "result": "7.38 µM (inactive)"},
      {"measurement": "GI50", "setting": "A498", "result": "30.1 µM (inactive)"},
      {"measurement": "GI50", "setting": "HOP-62", "result": "9.79 µM (inactive)"},
      {"measurement": "GI50", "setting": "SNB-19", "result": "31 µM (inactive)"},
      {"measurement": "GI50", "setting": "SK-MEL-5", "result": "21.5 µM (inactive)"}
    ]}
  ]
}
